The conditions of data set [1]: compared with H2; stated as known; cited from earlier work.
For data set [2], the system named is injured nerve cells of the spinal cord / spinal cord-injured animal model. The following applies: high-concentration hydrogen of, for example, 50% or more; X. Chen 2018, C. Chen 2010; cited from earlier work.
For data set [3], the system named is symptoms of cervical spine/cervical cord injury. How it is done:
They restored consciousness about a week after the accident.
Immediately before inhalation of hydrogen gas 6 years after the accident, they went to work in the afternoon 4 or 5 days a week, and stayed at home throughout a day when they felt ill. Further, they occasionally saw a doctor of psychiatry.
About 6 years after the accident, the patient underwent inhalation of hydrogen (hydrogen inhalation equipment: MHG-2000a Type, hydrogen concentration: 6 to 7.5%, hydrogen gas production rate: 140 mL/min, MiZ Company Limited (Kanagawa, Japan) over a period from Oct. 4, 2018 to May 12, 2019. Hydrogen was aspirated twice a day, once in the morning and once in the afternoon, for a total of 2 to 7.5 hours (an average of 3.3 hours a day), and as symptoms, pain, disordered sleep, decreased appetite, physical fatigue, mental fatigue, nervous fatigue, burning sensation on the back and foot spasticity were evaluated on Face Pain Scale (FPS; scale: 0 to 5) for about 7 months.
The FAS scales in FIGS. 1 to 5 indicate how the state changed after inhalation as compared to the state before inhalation. […] In FIGS. 1 to 5, the number of scores (e.g. 0 to 3) was counted for each of the periods, and the ratio (%) of the scores in each item was calculated. In the diagrams, the numbers shown outside the table represent the total numbers of respective scores.
Further, on May 13, 2019, the patient started inhalation of hydrogen using hydrogen gas inhalation equipment for professional use (hydrogen concentration: 6 to 7.5%, hydrogen gas production rate: 1,120 mL/min, MiZ Company Limited) instead of the hydrogen inhalation equipment MHG-2000a Type.
FIGS. 1 to 5 show the results of counting over a period from Oct. 4, 2018 to Feb. 14, 2019.
The patient recorded the FAS scores as well as their feeling before and after inhalation on paper record forms as will be described below.

The conditions of data set [4]: normal temperature and normal pressure; also printed as 1.6 mg/L; cited from earlier work.

Turning to `[2H][2H]` [D2, deuterium], in data set [1], the superoxide eliminating action entry is given as “higher than that of H2”.

With `[HH]` [hydrogen gas, molecular hydrogen], in data set [2], the “nerve cells of the spinal cord” value was “the nerve cells of the spinal cord were protected” and the oxidative stress result is recorded as “oxidative stress was suppressed”. Further, the “FAS “4” and FAS “5” scores” value in data set [3] (Oct. 4, 2018 to Feb. 14, 2019, all items, hydrogen 6 to 7.5%, 140 mL/min) is given as “not recorded at all”. Moreover, the “improvement in pain, sleep, appetite, physical fatigue, mental fatigue and nervous fatigue (Face Pain Scale scores)” value in data set [3] (Oct. 4 to Oct. 31, 2018, inhalation, hydrogen 6 to 7.5%, 140 mL/min, average 3.3 hours a day, FAS 0 and 1 scores recorded) is recorded as “good improvement tendency”. The “improvement in sensation on the back and improvement in foot spasticity (Face Pain Scale scores)” value in data set [3] (Oct. 4 to Oct. 31, 2018, inhalation, hydrogen 6 to 7.5%, 140 mL/min, FAS 2 and 3 scores, occasionally 1) was “the improvement tendency was unknown or became worse”. In addition, the “Face Pain Scale scores, all items, before against after inhalation” value in data set [3] (from May 13, 2019, equipment for professional use, hydrogen 6 to 7.5%, 1,120 mL/min) is reported as “improvement occurred in all the items”. Further, the “ratio of FAS “1” scores” value in data set [3] (in and after November 2018, against inhalation time, hydrogen 6 to 7.5%, 140 mL/min) is on record as “tended to increase as the inhalation time increased”. In addition, the “FAS score recorded in any of the items” value in data set [3] (on and after Dec. 1, 2018, continuous inhalation, hydrogen 6 to 7.5%, 140 mL/min, scale 0 to 5) came out at 3. The “body temperature and sweating reported by the patient” value in data set [3] (record May 13, 2019, equipment 1,120 mL/min, hydrogen 6 to 7.5%) was “the body temperature rises, and thus sweating cannot be stopped”. The “patient's recorded feeling (spasticity, peripheral nerve, metabolism, flow of blood, induction of sleep)” value in data set [3] (record May 13, 2019, equipment 1,120 mL/min, hydrogen 6 to 7.5%, compared with before) is “a more potent effect is exhibited”. Moreover, in data set [4], the “concentration of hydrogen dissolved in water” value is listed as “about 1.6 ppm”.

The record behind these values is patent publication US20200384013A1, “COMPOSITION FOR IMPROVEMENT OF SYMPTOMS OF SPINAL CORD INJURY” (MiZ Company Limited, priority 2019, published 2020).
